Laboratory results reported in patent US20220160703A1, “TUMOR-SELECTIVE COMBINATION THERAPY” (The Board of Regents of The University of Texas System, priority 2019, published 2022).

How the values were obtained:
[1] = system: NQO1 positive human lung carcinoma lines A549; experiment: Cell survival of A549 cells (SRB); assay type: cell-based; conditions: β-lap 0-6 μM 3 hr, survival 4 days later
Method: (FIG. 18A) B16 NQO1 #1 cells were subcutaneously transplanted into C57BL/6 WT and Rag1KO mice (n=5/group), respectively. Tumor bearing mice were treated with β-lap (0.3 mg, i.t.) every other day for four times. (FIG. 18B) Changes of the immune cells in the tumor microenvironment 7 days after β-lap treatment. C57BL/6 mice (n=4/group) were transplanted with MC38 cells and intratumorally treated with 0.3 mg of β-lap for two times. 7 days after the last treatment, tumor tissue was removed and digested, and immune cells were analyzed with flow cytometer (unpaired student t-test was used to analyze the significance of changes, *P<0.05, **P<0.01). (FIG. 18C) C57BL/6 mice were transplanted with MC38 cells and treated with β-lap (0.3 mg, i.t.) every other day for four times. For T cell depletion, 200 μg of anti-CD4 or anti-CD8 antibodies were injected four times at three days interval during the treatment. […] Data are shown as mean±SEM.
Sulforhodamine B (SRB) Cytotoxicity Assay. 4,000 cells were planted in 96 or 48 well plate with triplicates. After overnight growth, cells were exposed to β-lapachone with or without NQO1 inhibitor dicoumarol (50 μM) for a 3-hour pulse.

MC38-OVA cells = experiment: Prophylactic tumor vaccination with β-lap-induced dying MC38-OVA cells; assay type: in vivo, mice; conditions: β-lap-induced dying MC38-OVA cells s.c., rechallenge after 7 days
Source text: (FIG. 5B) The research schema for in vivo cross-presentation of tumor specific antigen from β-lap-induced dying tumor cells in FIG. 5C and FIG. 5D. (FIGS. 5C-D) Live or β-lap-induced dying MC38-OVA cells were subcutaneously inoculated into the flank of WT or Tlr4^−/− C57BL/6 (n=3-4/group) mice along with or without anti-HMGB1 antibody. 5 days later, the tumor drain lymph mode cells were collected and re-stimulated with OVA protein, OT-1 peptide or irradiated MC38-OVA cells for 48 hr. IFNγ producing cells were determined by ELISPOTs assay (FIG. 5C), and IFNγ secretion level was quantified by CBA mouse IFNγ assay (FIG. 5D). (FIG. 5E) The research schema for the immunogenic vaccine assay in FIG. 5F. (FIG. 5F) MC38-OVA cells treated with β-lap in vitro were inoculated s.c. along with or without anti-HMGB1 antibody into the flank of C57BL/6 mice (n=5-7/group). […] Data are shown as mean±SEM from at least two to three independent experiments. *P<0.05, **P<0.01, and ***P<0.001 determined by two-way ANOVA (FIG. 5C and FIG. 5D) or log-rank test (FIG. 5F).
The numbers of tumor antigen-specific T cells (FIG. 5C) and IFNγ production (FIG. 5D) in TdLN were determined; (ii) C57BL/6 mice that received vaccination with β-lap-induced dying MC38-OVA cells in the presence of anti-HMGB1Ab were rechallanged with MC38-OVA for evaluation of the antitumor protection (FIGS. 5E-F). […]

[2] = Methemoglobinemia and weight loss; assay type: in vivo; conditions: MC38 tumor bearing mice, 10 Gy + β-lap
IFNα/β = experiment: Type I IFN and cytokine expression in tumor tissue (ELISA, PCR); assay type: in vivo, mice; conditions: MC38-OVA, β-lap 0.3 mg i.t. two times, six days later
Method: FIGS. 19A-C (related to FIGS. 4A-F). TLR4/MyD88 pathway but not TLR9 signaling is required for the antitumor effect of β-lap. (FIGS. 19A-B) MC38-OVA bearing mice were treated with β-lap (0.3 mg, i.t.) for two times. Six days later, tumor tissues were collected for both single cell digestion (FIG. 19A) and RNA extraction (FIG. 19B). (FIG. 19A) The secreted IFNβ from the suspended cell supernatant was measured by ELISA after a 24 hr culture. (FIG. 19B) The mRNA levels of IFNα1, IFNγ, TNFα and CXCL10 were determined by real-time PCR assay. (FIG. 19C) MC38 cells were implanted into Myd88^−/−, Tlr4^−/− and Tlr9^−/− C57BL/6 mice, respectively. Tumor bearing mice were then treated with β-lap (0.3 mg, i.t.) every other day for four times. Tumor growth was monitored twice a week. Data are shown as mean±SEM. *P<0.05, **P<0.01, ***P<0.001 determined by unpaired t-test. FIGS. 25A-E. IB-DNQ induces tumor ICD and dendritic cell-mediated T cell cross-priming. (FIG. 25A) The levels of HMGB1 released into cell culture supernatant after IB-DNQ treatment. MC38, MC38 NOQ1^−/−, B16, and B16 NOQ1^+ cells were treated with IB-DNQ for 4 h followed by replacing medium and growth for 24 h, culture supernatant was collected and HMGB1 levels were determined by ELISA. (FIGS. 25B-C) Relative expression of IFN-α and IFN-β. […]

CC1(C)CCC2=C(O1)c1ccccc1C(=O)C2=O [β-lap, β-lapachone]
response to β-lap in vitro [1]: sensitive | growth of re-challenged tumor after immunization (MC38-OVA cells): prevented the growth of the re-challenged tumor | methemoglobinemia or weight loss [2]: no significant methemoglobinemia or weight loss | IFNα/β, CXCL10, IFNγ and TNFα in treated tumors (IFNα/β): upregulated
